Reference: BindingDB's records for doi:10.1021/jm401801t (University of Geneva, 2014)

What was measured:
[1] = Inhibition of human HSP90alpha expressed in yeast assessed as growth inhibition of host after 72 hrs
[2] = Inhibition of human HSP90beta expressed in yeast assessed as growth inhibition of host after 72 hrs

IC50 [1]: 308 µM | IC50 [2]: 120 µM
Compound: COCC(=O)Nc1c(C(=O)OC)n(CCC(C)C)c2ncc(NC(C)CCC=C(C)C)cc12 (configuration not stated)
